For one test, the target named is T1, G9a (Homo sapiens, UniProt Q96KQ7).
T1 sequence (Q96KQ7 1-1210): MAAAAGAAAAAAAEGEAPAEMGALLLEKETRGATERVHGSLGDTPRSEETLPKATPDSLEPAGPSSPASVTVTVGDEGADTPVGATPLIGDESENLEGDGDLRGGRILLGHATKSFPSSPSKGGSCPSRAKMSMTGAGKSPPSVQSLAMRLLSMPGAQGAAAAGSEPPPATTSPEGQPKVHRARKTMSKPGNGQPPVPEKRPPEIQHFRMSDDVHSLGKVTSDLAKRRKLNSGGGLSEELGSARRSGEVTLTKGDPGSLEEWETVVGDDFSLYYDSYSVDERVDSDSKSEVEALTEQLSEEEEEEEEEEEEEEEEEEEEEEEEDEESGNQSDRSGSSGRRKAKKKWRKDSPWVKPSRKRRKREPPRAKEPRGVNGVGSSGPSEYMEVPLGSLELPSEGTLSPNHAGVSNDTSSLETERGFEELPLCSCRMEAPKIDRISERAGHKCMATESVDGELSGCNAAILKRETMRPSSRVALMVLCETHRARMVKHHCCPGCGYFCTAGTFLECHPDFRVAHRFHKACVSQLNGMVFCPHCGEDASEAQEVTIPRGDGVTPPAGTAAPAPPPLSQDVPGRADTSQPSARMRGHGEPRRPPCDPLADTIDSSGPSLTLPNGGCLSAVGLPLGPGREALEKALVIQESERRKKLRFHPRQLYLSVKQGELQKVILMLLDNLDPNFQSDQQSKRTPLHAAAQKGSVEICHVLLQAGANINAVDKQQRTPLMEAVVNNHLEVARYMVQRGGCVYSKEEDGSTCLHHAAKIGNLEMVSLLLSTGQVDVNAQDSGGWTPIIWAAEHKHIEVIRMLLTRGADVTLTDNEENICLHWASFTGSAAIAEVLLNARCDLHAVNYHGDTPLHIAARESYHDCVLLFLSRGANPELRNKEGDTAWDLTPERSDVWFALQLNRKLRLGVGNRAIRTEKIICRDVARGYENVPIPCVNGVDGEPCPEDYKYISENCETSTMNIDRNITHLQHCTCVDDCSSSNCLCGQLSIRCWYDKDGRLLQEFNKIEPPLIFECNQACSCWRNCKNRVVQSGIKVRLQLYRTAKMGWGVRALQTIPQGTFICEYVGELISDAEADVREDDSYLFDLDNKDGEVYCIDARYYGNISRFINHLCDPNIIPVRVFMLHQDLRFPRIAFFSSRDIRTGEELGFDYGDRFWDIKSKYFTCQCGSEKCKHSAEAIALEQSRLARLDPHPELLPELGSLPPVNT
Description: biochemical.

For a further test, the target named is T2, PRMT4 (Homo sapiens, UniProt Q86X55).
T2 construct: purchased Reaction Biology
In words: Radioisotope-based methyltransferase assay (selectivity). It is filed as biochemical.

The subject of test [1] is G9a and GLP in HUDEP-2 cells. In words: Western blotting of G9a and GLP levels in HUDEP-2 cells. In kind it is cell-based, human. How it is done: Preparation of cell lysates and western blotting were performed as described previously. Protein from cells lysates in lysis buffer (50 mM Tris-HCl (pH 7.5), 150 mM NaCl, 5 mM EDTA, 0.1% NP-40, 1 mM dithiothreitol) were separated by sodium dodecyl sulfate–polyacrylamide gel electrophoresis (SDS-PAGE) and transferred to a polyvinylidene difluoride (PVDF) membrane (Millipore) by electroblotting. The membranes incubated with primary antibodies overnight at 4 °C and secondary antibodies for 1 h at room temperature. The immune complexes were detected with the Immobilon Western Chemiluminescent HRP Substrate (Millipore). Luminescence was analyzed on a FUSION SOLO S (Vilber). Western blot bands were visualized using Evolution Capt software (M&S Instruments Inc.). Primary antibodies used were anti-G9a (1:1000, CST, #3306), anti–α-tubulin (1:5000, Abcam, ab18251), anti-H3K9me2 (1:3000, Abcam, ab1220), anti-H3 (1:5000, Abcam, ab1791), anti-H3K27me3 (1:3000, Sigma, 07-449), anti-GLP (1:1000, CST, #35005), anti-FLAG (100 ng/ml, Fujifilm, 01422383), anti-His (1:5000, MBL, PM032), anti-BCL11A (1:1000, abcam, ab19487), anti-ZBTB7A (1:1000, CST, #50565), anti-CHD3 (1:1000, Novus Biologicals, NB100-60412), and anti-CHD4 (1:1000, abcam, ab240640). Uncropped scans of all of the blots are available in Source Data file.
For orientation: A western blot detects proteins with antibodies after separation by electrophoresis.

A further test addresses NSD2 (E1099K) (Homo sapiens, UniProt O96028, E1099K). Description: Radioisotope-based methyltransferase assay (selectivity).
The subject of another test is H3K9me2 in CD34+ cells. Description: Western blotting of H3K9me2 in CD34+ cells. It is filed as cell-based, human. How it is done: HUDEP-2 cells and HiDEP-1 cells were grown in Stemline II Hematopoietic Stem Cell Expansion Medium (Sigma) supplemented with 50 ng/mL recombinant stem cell factor (SCF; R&D systems), 3 IU/mL recombinant erythropoietin (EPO; Kyowa Kirin), 1 μM dexamethasone (Dex; Sigma), and 1 μg/mL doxycycline (Sigma). A total of 1 × 10^5 human CD34^+ progenitor cells derived from bone marrow or peripheral blood (Lonza) were cultured on 35-mm dishes (BD Falcon) in StemSpan SFEMII medium with 50 ng/mL SCF, 5 IU/mL EPO, and 10 ng /mL interleukin 3 (IL-3; R&D systems). The medium was changed on day 4 to SCF, EPO, and 1 μM Dex, and the cells were transferred to 60-mm dishes (BD Falcon). Seven days after the onset of differentiation, cells were counted and 1 × 10^6 cells were re-plated on 100-mm dishes (BD Falcon) with SCF, EPO, and Dex. The rat myoblast cell line H9c2, HEK293T, and PLAT-E cells were maintained in Dulbecco’s modified Eagle’s medium (Thermo Fisher Scientific) supplemented with 10% heat-inactivated fetal bovine serum (FBS) and penicillin/streptomycin. All cells were cultured at 37 °C under 5% CO2.
Preparation of cell lysates and western blotting were performed as described previously. […] The immune complexes were detected with the Immobilon Western Chemiluminescent HRP Substrate (Millipore). Luminescence was analyzed on a FUSION SOLO S (Vilber). […]

SMILES strings stand for the structures. “And” between values parts separate entries of the source, which are not always exact repeats. Equal entries are not always repeated.

As a reminder, the IC50 is the concentration that gives 50% inhibition.

T2 sequence (Q86X55 whole entry): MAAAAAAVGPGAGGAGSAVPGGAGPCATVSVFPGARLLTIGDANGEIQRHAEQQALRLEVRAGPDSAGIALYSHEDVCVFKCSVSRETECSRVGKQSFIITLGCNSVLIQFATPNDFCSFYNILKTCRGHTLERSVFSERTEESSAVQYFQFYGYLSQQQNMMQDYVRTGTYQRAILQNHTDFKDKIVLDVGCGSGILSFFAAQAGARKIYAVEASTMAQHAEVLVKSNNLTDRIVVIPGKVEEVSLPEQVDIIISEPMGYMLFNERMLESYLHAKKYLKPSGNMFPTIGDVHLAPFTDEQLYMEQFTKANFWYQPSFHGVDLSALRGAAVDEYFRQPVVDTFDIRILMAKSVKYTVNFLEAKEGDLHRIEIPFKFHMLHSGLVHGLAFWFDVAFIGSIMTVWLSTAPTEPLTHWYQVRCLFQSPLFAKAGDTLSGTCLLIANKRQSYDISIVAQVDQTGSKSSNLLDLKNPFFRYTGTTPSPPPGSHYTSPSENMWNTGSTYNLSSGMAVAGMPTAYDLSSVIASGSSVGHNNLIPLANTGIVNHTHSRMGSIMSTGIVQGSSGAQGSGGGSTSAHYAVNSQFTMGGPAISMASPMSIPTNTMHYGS
NSD2 (E1099K), sequence (O96028 whole entry E1099K): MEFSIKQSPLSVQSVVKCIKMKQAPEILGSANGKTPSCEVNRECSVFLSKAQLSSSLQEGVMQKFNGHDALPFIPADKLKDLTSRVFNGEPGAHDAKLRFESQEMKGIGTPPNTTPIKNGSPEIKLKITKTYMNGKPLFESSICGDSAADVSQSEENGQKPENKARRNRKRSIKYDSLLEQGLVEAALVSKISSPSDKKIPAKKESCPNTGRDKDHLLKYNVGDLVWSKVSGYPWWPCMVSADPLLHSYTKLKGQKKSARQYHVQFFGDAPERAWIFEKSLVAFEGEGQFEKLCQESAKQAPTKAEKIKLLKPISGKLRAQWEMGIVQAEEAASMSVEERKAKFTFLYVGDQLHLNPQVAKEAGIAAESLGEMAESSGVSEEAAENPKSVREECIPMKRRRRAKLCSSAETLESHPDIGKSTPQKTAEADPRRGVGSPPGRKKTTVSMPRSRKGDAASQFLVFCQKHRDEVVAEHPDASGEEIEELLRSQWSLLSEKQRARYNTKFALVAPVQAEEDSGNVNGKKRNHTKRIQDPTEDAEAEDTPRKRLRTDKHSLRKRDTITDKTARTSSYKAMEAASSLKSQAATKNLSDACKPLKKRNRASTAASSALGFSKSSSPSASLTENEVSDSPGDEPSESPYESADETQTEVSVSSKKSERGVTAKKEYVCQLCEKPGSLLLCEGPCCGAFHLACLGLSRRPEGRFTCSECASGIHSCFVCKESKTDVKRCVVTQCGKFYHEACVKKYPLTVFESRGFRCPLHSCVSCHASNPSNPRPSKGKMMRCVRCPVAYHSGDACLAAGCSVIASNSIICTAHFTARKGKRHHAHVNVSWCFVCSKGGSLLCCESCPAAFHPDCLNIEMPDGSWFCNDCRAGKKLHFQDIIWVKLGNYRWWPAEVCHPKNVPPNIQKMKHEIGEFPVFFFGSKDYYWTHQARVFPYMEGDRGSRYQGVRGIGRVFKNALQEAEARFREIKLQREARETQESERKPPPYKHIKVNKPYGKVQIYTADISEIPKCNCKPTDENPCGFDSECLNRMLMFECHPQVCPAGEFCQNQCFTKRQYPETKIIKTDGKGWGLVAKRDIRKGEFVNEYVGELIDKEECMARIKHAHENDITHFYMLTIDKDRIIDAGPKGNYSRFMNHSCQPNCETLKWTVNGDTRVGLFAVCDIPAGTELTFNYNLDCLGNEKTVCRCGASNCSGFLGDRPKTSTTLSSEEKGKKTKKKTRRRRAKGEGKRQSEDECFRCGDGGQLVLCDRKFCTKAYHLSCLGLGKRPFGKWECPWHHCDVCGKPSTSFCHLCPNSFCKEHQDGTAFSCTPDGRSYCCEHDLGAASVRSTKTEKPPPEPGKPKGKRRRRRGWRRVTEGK

Take `Cc1c(C(=O)NC(CCC2CC2)C(=O)Nc2ccc(C#N)cc2)[nH]c2c1C(=O)CC(C)(C)C2` (stereo not drawn) [RK-701]: the IC50 was 21.8 nM and 23.9 nM against G9a; above 100000 nM against PRMT4 (PRMT4, 1 μM SAM); above 100000 nM at PRMT4 (PRMT4, RK-701 in duplicate); above 100000 nM against NSD2 (E1099K). Moreover, in test [1], the “expression levels of G9a and GLP” value is listed as “did not affect”.
`NC(=O)NO` [Hydroxyurea, hydroxyurea]: in the test with H3K9me2 in CD34+ cells, the H3K9me2 level result was “did not affect the H3K9me2 level”.

These data come from article PMC9837035 (Nature Communications, 2023).
